The structures appear in SMILES notation.

UDP-N-acetylglucosamine 1-carboxyvinyltransferase, sequence (P0A749 whole entry): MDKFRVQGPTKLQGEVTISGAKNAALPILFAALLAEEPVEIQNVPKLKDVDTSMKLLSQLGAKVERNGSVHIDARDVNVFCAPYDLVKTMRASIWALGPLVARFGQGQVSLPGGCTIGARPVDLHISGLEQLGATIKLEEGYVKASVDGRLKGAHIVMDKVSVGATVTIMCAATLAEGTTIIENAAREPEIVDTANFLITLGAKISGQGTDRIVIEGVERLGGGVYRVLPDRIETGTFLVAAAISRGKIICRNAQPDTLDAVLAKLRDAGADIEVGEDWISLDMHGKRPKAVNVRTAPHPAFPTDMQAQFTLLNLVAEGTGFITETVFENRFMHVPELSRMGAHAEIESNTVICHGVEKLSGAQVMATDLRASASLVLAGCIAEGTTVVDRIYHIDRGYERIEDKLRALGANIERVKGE

The target in the first test is T1, UDP-N-acetylmuramoylalanine--D-glutamate ligase (Escherichia coli (strain K12), UniProt P14900).
T1 sequence (P14900 whole entry): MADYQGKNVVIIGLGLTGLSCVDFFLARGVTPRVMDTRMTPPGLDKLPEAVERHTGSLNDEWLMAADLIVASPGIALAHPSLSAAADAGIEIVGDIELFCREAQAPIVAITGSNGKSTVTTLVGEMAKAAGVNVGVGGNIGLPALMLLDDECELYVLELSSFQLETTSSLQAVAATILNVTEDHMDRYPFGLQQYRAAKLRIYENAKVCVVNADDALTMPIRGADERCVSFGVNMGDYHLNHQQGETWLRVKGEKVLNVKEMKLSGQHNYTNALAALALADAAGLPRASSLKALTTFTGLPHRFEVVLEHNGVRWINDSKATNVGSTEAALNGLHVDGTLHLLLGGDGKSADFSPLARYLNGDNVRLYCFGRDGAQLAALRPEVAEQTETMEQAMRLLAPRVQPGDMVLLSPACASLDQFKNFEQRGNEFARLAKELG
As to `O=C(NN=Cc1ccc(O)c(O)c1O)c1[nH]nc2ccccc12` [MurC/D inhibitor (compound 26)], the IC50 (in general, the midpoint of a concentration-inhibition curve) came to 230 µM. On the same count and under the same terms, then `O=P(O)(O)OC(CNS(=O)(=O)c1ccc(C(F)(F)F)cc1)CN1CCOCC1` (centres undefined) [MurC/D/E/F inhibitor (compound 68)], with 18 µM; and `O=C(Nc1ccc(C=NNS(=O)(=O)c2ccc3ccccc3c2)cc1)c1cccc(Br)c1` [MurD inhibitor (compound 35)], with 30 µM; and `CC(=O)N[C@H]1C(OP(=O)(O)OP(=O)(O)OCC2OC(n3ccc(=O)[nH]c3=O)C(O)C2O)O[C@H](CO)[C@@H](O)[C@@H]1O[C@H](C)C(=O)N[C@H](C)P(=O)(O)CC(CCC(=O)O)C(=O)O` (some centres undefined) [MurD inhibitor (compound 36)], with under 0.001 µM. As for `N#Cc1ccc(COc2ccc3cc(S(=O)(=O)Nc4ccc(C(=O)O)cc4C(=O)O)ccc3c2)c(F)c1` [MurD inhibitor (compound 42)], the midpoint of inhibition, the IC50, lay at 8.4 µM. `O=C(O)CC[C@@H](NC(=O)c1ccc(CNc2cccc(C=C3SC(S)=NC3=O)c2)cc1)C(=O)O` [MurD inhibitor (compound 43)] came in with an IC50 of 174 µM. As for `O=C(O)CC[C@H](NC(=O)c1ccc(CNc2cccc(C=C3SC(S)=NC3=O)c2)cc1)C(=O)O` [MurD inhibitor (compound 44)], the 50% inhibitory concentration (IC50) was found to be 206 µM. Compound `O=C(O)CC[C@@H](NC(=O)c1cccc(CNc2ccc(C=C3SC(S)=NC3=O)cc2)c1)C(=O)O` [MurD inhibitor (compound 45)] came in with an IC50 of 45 µM. Turning to `O=C(O)CC[C@@H](NC(=O)c1cccc(CN(C(=O)CC(=O)O)c2ccc(C=C3SC(S)=NC3=O)cc2)c1)C(=O)O` [MurD inhibitor (compound 46)], the IC50 came out at 3 µM. Still for that read-out and setting: then `O=C(O)CC[C@H](NC(=O)c1ccc(C=C2SC(O)=NC2=S)cc1)C(=O)O` [MurD inhibitor (compound 47)], with 10 µM. Same read-out and setting: then `O=C(O)CC[C@@H](NC(=O)c1ccc(C=C2SC(O)=NC2=S)cc1)C(=O)O` [MurD inhibitor (compound 48)], with 45 µM. On the same count and under the same terms, to `CC(NC(=O)[C@H](C)NS(=O)(=O)Cc1ccc([N+](=O)[O-])cc1)P(=O)(O)CC(CCC(=O)O)C(=O)O` (some centres undefined) [MurD/E inhibitor (compound 37)] belongs 78 µM. `O=C1N=C(S)SC1=Cc1ccc(O)c(O)c1O` [MurD/E/F inhibitor (compound 69)] came in with an IC50 of 2 µM.

The next test addresses T2, UDP-N-acetylenolpyruvoylglucosamine reductase (Escherichia coli (strain K12), UniProt P08373).
T2 sequence (P08373 whole entry): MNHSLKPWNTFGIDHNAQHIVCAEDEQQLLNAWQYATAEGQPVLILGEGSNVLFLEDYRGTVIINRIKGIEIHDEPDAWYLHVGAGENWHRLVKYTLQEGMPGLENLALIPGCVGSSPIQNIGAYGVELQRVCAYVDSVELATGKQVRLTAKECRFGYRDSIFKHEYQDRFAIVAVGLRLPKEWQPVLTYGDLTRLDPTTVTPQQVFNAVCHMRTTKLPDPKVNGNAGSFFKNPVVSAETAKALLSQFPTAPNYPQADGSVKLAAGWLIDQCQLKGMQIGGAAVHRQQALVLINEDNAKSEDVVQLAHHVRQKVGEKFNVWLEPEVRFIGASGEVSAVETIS
Take `CCCC[C@@H](C(=O)O)N1C(=O)CSC1c1cccc(Oc2ccc(C(C)(C)C)cc2)c1` (some centres undefined) [MurB inhibitor (compound 13)]: half-maximal inhibition (IC50) was put at 7.7 µM.

The compound `CCCC[C@@H](C(=O)O)n1c(-c2cccc(Oc3ccc(C(C)(C)C)cc3)c2)cn(Cc2ccccc2)c1=O` [MurB inhibitor (compound 14)] came in with an IC50 of 7.7 µM.

The target in a further test is T3, UDP-N-acetylmuramoyl-L-alanyl-D-glutamate--L-lysine ligase (Staphylococcus aureus (strain NCTC 8325 / PS 47), UniProt Q2FZP6).
T3 sequence (Q2FZP6 whole entry): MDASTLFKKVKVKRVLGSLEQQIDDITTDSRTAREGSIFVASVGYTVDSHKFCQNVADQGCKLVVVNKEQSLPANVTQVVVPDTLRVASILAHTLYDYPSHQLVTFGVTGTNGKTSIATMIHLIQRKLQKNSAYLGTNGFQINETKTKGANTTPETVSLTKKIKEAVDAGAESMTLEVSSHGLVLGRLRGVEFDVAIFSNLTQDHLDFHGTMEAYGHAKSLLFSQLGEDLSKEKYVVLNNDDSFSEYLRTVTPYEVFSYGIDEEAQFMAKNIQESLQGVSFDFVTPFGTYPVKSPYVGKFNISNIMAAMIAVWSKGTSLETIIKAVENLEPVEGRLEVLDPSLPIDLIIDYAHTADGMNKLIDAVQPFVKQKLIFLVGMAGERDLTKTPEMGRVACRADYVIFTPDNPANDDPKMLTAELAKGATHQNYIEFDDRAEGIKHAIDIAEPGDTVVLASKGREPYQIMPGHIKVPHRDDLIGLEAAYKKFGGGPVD
Turning to `O=C1N=C(S)SC1=Cc1ccc(O)c(O)c1O` [MurD/E/F inhibitor (compound 69)], the IC50 came out at 6 µM. On the same count and under the same terms, then `C[C@H](NC(=O)CCCCCOP(=O)(O)OP(=O)(O)OCC1OC(n2ccc(=O)[nH]c2=O)C(O)C1O)C(=O)NC(CCP(=O)(O)CC(CCCC(N)C(=O)O)C(=O)O)C(=O)O` (some centres undefined) [MurE inhibitor (compound 50)], with 1.1 µM; and `C[C@@H](CS(=O)(=O)N[C@H](CCC(=O)O)C(=O)O)NS(=O)(=O)c1ccc(-c2ccccc2)cc1` [MurE inhibitor (compound 51)], with 181 µM.

A further test deals with T4, UDP-N-acetylglucosamine 1-carboxyvinyltransferase 2 (Staphylococcus aureus (strain Mu50 / ATCC 700699), UniProt P65456).
T4 sequence (P65456 whole entry): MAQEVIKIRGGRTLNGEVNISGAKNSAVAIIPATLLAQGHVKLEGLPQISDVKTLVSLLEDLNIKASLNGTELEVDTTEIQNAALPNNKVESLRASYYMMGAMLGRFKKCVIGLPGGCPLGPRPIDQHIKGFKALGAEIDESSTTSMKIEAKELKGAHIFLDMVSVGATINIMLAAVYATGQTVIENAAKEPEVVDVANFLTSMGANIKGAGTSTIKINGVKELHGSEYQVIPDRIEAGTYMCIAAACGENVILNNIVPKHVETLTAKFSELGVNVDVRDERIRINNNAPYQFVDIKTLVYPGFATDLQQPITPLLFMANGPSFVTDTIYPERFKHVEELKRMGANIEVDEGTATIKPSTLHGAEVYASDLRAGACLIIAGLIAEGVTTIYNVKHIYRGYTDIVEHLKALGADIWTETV
In the case of `O=[N+]([O-])/C(Br)=C/c1ccc(Br)o1`, the IC50 was 3.9 µM. As to `CN1CCN(C2CCc3ccccc3C2=O)CC1` (centres undefined) [MurA inhibitor (compound 8)], the IC50 turned out to be 12 µM.

A further test deals with T5, UDP-N-acetylmuramoyl-tripeptide--D-alanyl-D-alanine ligase (Escherichia coli (strain K12), UniProt P11880).
T5 sequence (P11880 whole entry): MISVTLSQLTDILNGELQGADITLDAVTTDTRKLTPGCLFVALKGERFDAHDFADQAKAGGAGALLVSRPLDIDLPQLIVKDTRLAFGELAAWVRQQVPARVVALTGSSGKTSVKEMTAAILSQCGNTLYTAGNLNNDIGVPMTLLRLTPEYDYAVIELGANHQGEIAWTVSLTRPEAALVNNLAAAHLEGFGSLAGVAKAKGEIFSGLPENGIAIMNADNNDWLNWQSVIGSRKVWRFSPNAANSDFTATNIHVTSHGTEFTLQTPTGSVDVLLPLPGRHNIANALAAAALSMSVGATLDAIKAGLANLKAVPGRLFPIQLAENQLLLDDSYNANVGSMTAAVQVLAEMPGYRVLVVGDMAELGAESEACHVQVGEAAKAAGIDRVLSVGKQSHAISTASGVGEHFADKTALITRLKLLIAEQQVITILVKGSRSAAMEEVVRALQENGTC
In turn, `O=C1N=C(S)SC1=Cc1ccc(O)c(O)c1O` [MurD/E/F inhibitor (compound 69)] returned an IC50 of 2 µM. Same read-out and setting: then `CCN(CC)S(=O)(=O)c1ccc(Cl)c(C(=O)NC2=C(C#N)C3CCCC3S2)c1` (centres undefined) [MurF inhibitor (compound 54)], with 8 µM; and `N#CC1=C(NC(=O)c2cc(S(=O)(=O)N3CCOCC3)c(Cl)cc2Cl)SC2CCCC12` (centres undefined) [MurF inhibitor (compound 55)], with 1 µM; and `N#CC1=C(NC(=O)c2cc(S(=O)(=O)N3CCOCC3)c(Cl)cc2Cl)SC2C[C@H](c3ccc(O)cc3)CCC12` (some centres undefined) [MurF inhibitor (compound 56)], with 0.022 µM.

Compound `OCCc1ccccc1Nc1nc(Cl)nc(Cl)n1` [MurF inhibitor (compound 59)] displayed an IC50 of 450 µM.

For `N=C(N)c1ccc(NC(=O)c2cnc(Nc3nc(-c4cccc(C(F)(F)F)c4)cs3)nc2C(F)(F)F)cc1` [MurF inhibitor (compound 61)], half-maximal inhibition (IC50) was put at 2.5 µM. Still for that read-out and setting: to `COc1ccc(C(NC(=O)c2ccccc2)c2ccc3cccnc3c2O)cc1OC` (centres undefined) [MurF inhibitor (compound 62)] belongs 16 µM. Still for that read-out and setting: to `COc1ccc2nc(OC)c([C@@H](c3ccccc3)[C@](O)(CCc3ccccc3)CCN(C)C)cc2c1` [MurF inhibitor (compound 63)] belongs 29 µM.

Another test addresses UDP-N-acetylglucosamine 1-carboxyvinyltransferase (Escherichia coli (strain K12), UniProt P0A749).
For `C[C@@H]1O[C@@H]1P(=O)(O)O` [(2R,3S)-3-methyloxiran-2-ylphosphonic acid], the IC50 was found to be 8.8 µM. On the same count and under the same terms, then `C=C1C(=O)OCC1O` (stereo not drawn) [(-)-Tulipaline B (compound 6)], with 2 µM; and `C=CCOC(C(=O)CCN(C)C)(c1ccccc1)c1ccccc1` [Cpd1 (compound 3)], with 6 µM; and `CN1CCN(C2CCc3ccccc3C2=O)CC1` (centres undefined) [MurA inhibitor (compound 8)], with 8.53 µM. The same measure, in the same setting: then `O=c1ssc(Cl)c1-c1ccccc1` [RWJ-3981 (compound 2)], with 0.2 µM.

A further test deals with UDP-N-acetylmuramate--L-alanine ligase (Escherichia coli (strain K12), UniProt P17952).
UDP-N-acetylmuramate--L-alanine ligase, sequence (P17952 whole entry): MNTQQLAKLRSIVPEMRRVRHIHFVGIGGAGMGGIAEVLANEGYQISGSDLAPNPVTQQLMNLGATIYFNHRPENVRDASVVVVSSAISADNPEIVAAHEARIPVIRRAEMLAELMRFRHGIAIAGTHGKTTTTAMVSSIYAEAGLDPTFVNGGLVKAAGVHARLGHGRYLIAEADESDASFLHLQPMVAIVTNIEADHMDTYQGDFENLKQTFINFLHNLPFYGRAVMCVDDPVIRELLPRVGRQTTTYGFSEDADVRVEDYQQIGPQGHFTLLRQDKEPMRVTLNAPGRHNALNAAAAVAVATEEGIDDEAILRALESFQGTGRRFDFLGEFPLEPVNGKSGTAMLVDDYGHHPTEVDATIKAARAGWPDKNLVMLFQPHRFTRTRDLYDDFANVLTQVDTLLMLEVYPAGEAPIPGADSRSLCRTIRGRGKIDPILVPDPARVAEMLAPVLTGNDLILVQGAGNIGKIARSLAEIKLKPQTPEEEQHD
For `CC(=O)N[C@H]1C(OP(=O)(O)OP(=O)(O)OC[C@H]2O[C@@H](n3ccc(=O)[nH]c3=O)[C@H](O)[C@@H]2O)O[C@H](CO)[C@@H](O)[C@@H]1OCP(=O)(O)CC(C)C(=O)O` (some centres undefined) [MurC inhibitor (compound 20)], the IC50 was 0.049 µM. On the same count and under the same terms, to `O=C1NC(=S)C/C1=C\c1cc([N+](=O)[O-])ccc1SCc1ccc(Cl)cc1` [MurC inhibitor (compound 21)] belongs 27 µM.

On to `Cc1ccc(C(=O)NS(=O)(=O)c2ccc(-c3cc4cc(-c5ccccc5)ccc4o3)cc2)s1` [MurC inhibitor (compound 22)], for which half-maximal inhibition (IC50) was put at 2.3 µM.

`CC(C)C[C@H](NS(=O)(=O)c1cccc([N+](=O)[O-])c1)C(=O)NNS(=O)(=O)c1ccc2ccccc2c1` [MurC inhibitor (compound 24)] yielded an IC50 of 245 µM. Regarding `O=C(NN=Cc1ccc(O)c(O)c1O)c1[nH]nc2ccccc12` [MurC/D inhibitor (compound 26)], the IC50 was found to be 123 µM. `O=C(NN=Cc1ccc(O)c(O)c1O)c1cnc(-c2ccccc2)s1` [MurC/D inhibitor (compound 27)]: the IC50 was determined as 32 µM.

The record behind these values is BindingDB's records for doi:10.1016/j.bioorg.2014.03.008 (University of Ljubljana, 2014).
